{"source": "the NIST ThermoML archive (doi:10.1021/je8004062)", "assay": "mn = molality of the nth substance listed, in mol/kg", "conditions": "101 kPa, Liquid", "note": "± gives the expanded uncertainty stated by the source.", "data": [{"smiles": "[Cl-].[Na+]", "note": "[sodium chloride] + O", "values": [{"measurement": "mass density", "setting": "293.15 K, m1 = 0.2076", "value": "1006.3 ± 0.1", "unit": "kg/m3"}, {"measurement": "viscosity", "setting": "293.15 K, m1 = 0.2076", "value": "1.012 ± 0.013", "unit": "mPa·s"}, {"measurement": "viscosity", "setting": "293.15 K, m1 = 0.3959", "value": "1.031 ± 0.013", "unit": "mPa·s"}, {"measurement": "mass density", "setting": "293.15 K, m1 = 0.5997", "value": "1022 ± 0.1", "unit": "kg/m3"}, {"measurement": "viscosity", "setting": "293.15 K, m1 = 0.5997", "value": "1.054 ± 0.013", "unit": "mPa·s"}, {"measurement": "mass density", "setting": "293.15 K, m1 = 0.7817", "value": "1029 ± 0.1", "unit": "kg/m3"}, {"measurement": "viscosity", "setting": "293.15 K, m1 = 0.7817", "value": "1.073 ± 0.013", "unit": "mPa·s"}, {"measurement": "mass density", "setting": "293.15 K, m1 = 1.01", "value": "1037.6 ± 0.1", "unit": "kg/m3"}, {"measurement": "viscosity", "setting": "293.15 K, m1 = 1.01", "value": "1.098 ± 0.013", "unit": "mPa·s"}, {"measurement": "mass density", "setting": "293.15 K, m1 = 1.199", "value": "1044.5 ± 0.1", "unit": "kg/m3"}, {"measurement": "viscosity", "setting": "293.15 K, m1 = 1.199", "value": "1.117 ± 0.014", "unit": "mPa·s"}, {"measurement": "mass density", "setting": "293.15 K, m1 = 1.502", "value": "1055.4 ± 0.2", "unit": "kg/m3"}, {"measurement": "viscosity", "setting": "293.15 K, m1 = 1.502", "value": "1.151 ± 0.014", "unit": "mPa·s"}, {"measurement": "mass density", "setting": "293.15 K, m1 = 1.794", "value": "1065.7 ± 0.2", "unit": "kg/m3"}, {"measurement": "viscosity", "setting": "293.15 K, m1 = 1.794", "value": "1.184 ± 0.014", "unit": "mPa·s"}, {"measurement": "mass density", "setting": "293.15 K, m1 = 2.004", "value": "1073.1 ± 0.2", "unit": "kg/m3"}, {"measurement": "viscosity", "setting": "293.15 K, m1 = 2.004", "value": "1.208 ± 0.015", "unit": "mPa·s"}, {"measurement": "mass density", "setting": "293.15 K, m1 = 2.409", "value": "1086.9 ± 0.2", "unit": "kg/m3"}, {"measurement": "viscosity", "setting": "293.15 K, m1 = 2.409", "value": "1.256 ± 0.015", "unit": "mPa·s"}, {"measurement": "mass density", "setting": "293.15 K, m1 = 3", "value": "1106.5 ± 0.2", "unit": "kg/m3"}, {"measurement": "viscosity", "setting": "293.15 K, m1 = 3", "value": "1.332 ± 0.016", "unit": "mPa·s"}, {"measurement": "mass density", "setting": "293.15 K, m1 = 3.595", "value": "1125.5 ± 0.2", "unit": "kg/m3"}, {"measurement": "viscosity", "setting": "293.15 K, m1 = 3.595", "value": "1.412 ± 0.017", "unit": "mPa·s"}, {"measurement": "mass density", "setting": "293.15 K, m1 = 4.186", "value": "1143.5 ± 0.2", "unit": "kg/m3"}, {"measurement": "viscosity", "setting": "293.15 K, m1 = 4.186", "value": "1.496 ± 0.018", "unit": "mPa·s"}, {"measurement": "mass density", "setting": "293.15 K, m1 = 4.812", "value": "1162.1 ± 0.2", "unit": "kg/m3"}, {"measurement": "viscosity", "setting": "293.15 K, m1 = 4.812", "value": "1.592 ± 0.019", "unit": "mPa·s"}, {"measurement": "mass density", "setting": "298.15 K, m1 = 0.2076", "value": "1005.7 ± 0.1", "unit": "kg/m3"}, {"measurement": "viscosity", "setting": "298.15 K, m1 = 0.2076", "value": "0.9082 ± 0.011", "unit": "mPa·s"}, {"measurement": "mass density", "setting": "298.15 K, m1 = 0.3959", "value": "1013.2 ± 0.1", "unit": "kg/m3"}, {"measurement": "viscosity", "setting": "298.15 K, m1 = 0.3959", "value": "0.9237 ± 0.011", "unit": "mPa·s"}, {"measurement": "mass density", "setting": "298.15 K, m1 = 0.5997", "value": "1021.2 ± 0.1", "unit": "kg/m3"}, {"measurement": "viscosity", "setting": "298.15 K, m1 = 0.5997", "value": "0.9408 ± 0.012", "unit": "mPa·s"}, {"measurement": "mass density", "setting": "298.15 K, m1 = 0.7817", "value": "1028.1 ± 0.1", "unit": "kg/m3"}, {"measurement": "viscosity", "setting": "298.15 K, m1 = 0.7817", "value": "0.9565 ± 0.012", "unit": "mPa·s"}, {"measurement": "viscosity", "setting": "298.15 K, m1 = 1.01", "value": "0.9769 ± 0.012", "unit": "mPa·s"}, {"measurement": "mass density", "setting": "298.15 K, m1 = 1.199", "value": "1043.4 ± 0.1", "unit": "kg/m3"}, {"measurement": "viscosity", "setting": "298.15 K, m1 = 1.199", "value": "0.9944 ± 0.012", "unit": "mPa·s"}, {"measurement": "mass density", "setting": "298.15 K, m1 = 1.502", "value": "1054.3 ± 0.2", "unit": "kg/m3"}, {"measurement": "viscosity", "setting": "298.15 K, m1 = 1.502", "value": "1.024 ± 0.013", "unit": "mPa·s"}, {"measurement": "mass density", "setting": "298.15 K, m1 = 1.794", "value": "1064.5 ± 0.2", "unit": "kg/m3"}, {"measurement": "viscosity", "setting": "298.15 K, m1 = 1.794", "value": "1.054 ± 0.013", "unit": "mPa·s"}, {"measurement": "mass density", "setting": "298.15 K, m1 = 2.004", "value": "1071.8 ± 0.2", "unit": "kg/m3"}, {"measurement": "viscosity", "setting": "298.15 K, m1 = 2.004", "value": "1.077 ± 0.013", "unit": "mPa·s"}, {"measurement": "mass density", "setting": "298.15 K, m1 = 2.409", "value": "1085.5 ± 0.2", "unit": "kg/m3"}, {"measurement": "viscosity", "setting": "298.15 K, m1 = 2.409", "value": "1.124 ± 0.014", "unit": "mPa·s"}, {"measurement": "mass density", "setting": "298.15 K, m1 = 3", "value": "1105 ± 0.2", "unit": "kg/m3"}, {"measurement": "viscosity", "setting": "298.15 K, m1 = 3", "value": "1.2 ± 0.015", "unit": "mPa·s"}, {"measurement": "mass density", "setting": "298.15 K, m1 = 3.595", "value": "1123.8 ± 0.2", "unit": "kg/m3"}, {"measurement": "viscosity", "setting": "298.15 K, m1 = 3.595", "value": "1.288 ± 0.015", "unit": "mPa·s"}, {"measurement": "mass density", "setting": "298.15 K, m1 = 4.186", "value": "1141.7 ± 0.2", "unit": "kg/m3"}, {"measurement": "viscosity", "setting": "298.15 K, m1 = 4.186", "value": "1.385 ± 0.017", "unit": "mPa·s"}, {"measurement": "mass density", "setting": "298.15 K, m1 = 4.812", "value": "1160 ± 0.2", "unit": "kg/m3"}, {"measurement": "viscosity", "setting": "298.15 K, m1 = 4.812", "value": "1.502 ± 0.018", "unit": "mPa·s"}, {"measurement": "mass density", "setting": "303.15 K, m1 = 0.2076", "value": "1004 ± 0.1", "unit": "kg/m3"}, {"measurement": "viscosity", "setting": "303.15 K, m1 = 0.2076", "value": "0.8115 ± 0.01", "unit": "mPa·s"}, {"measurement": "mass density", "setting": "303.15 K, m1 = 0.3959", "value": "1011.7 ± 0.1", "unit": "kg/m3"}, {"measurement": "viscosity", "setting": "303.15 K, m1 = 0.3959", "value": "0.8306 ± 0.01", "unit": "mPa·s"}, {"measurement": "viscosity", "setting": "303.15 K, m1 = 0.5997", "value": "0.8489 ± 0.011", "unit": "mPa·s"}, {"measurement": "mass density", "setting": "303.15 K, m1 = 0.7817", "value": "1026.4 ± 0.1", "unit": "kg/m3"}, {"measurement": "viscosity", "setting": "303.15 K, m1 = 0.7817", "value": "0.8638 ± 0.011", "unit": "mPa·s"}, {"measurement": "mass density", "setting": "303.15 K, m1 = 1.01", "value": "1034.8 ± 0.1", "unit": "kg/m3"}, {"measurement": "viscosity", "setting": "303.15 K, m1 = 1.01", "value": "0.8825 ± 0.011", "unit": "mPa·s"}, {"measurement": "mass density", "setting": "303.15 K, m1 = 1.199", "value": "1041.4 ± 0.1", "unit": "kg/m3"}, {"measurement": "viscosity", "setting": "303.15 K, m1 = 1.199", "value": "0.898 ± 0.011", "unit": "mPa·s"}, {"measurement": "mass density", "setting": "303.15 K, m1 = 1.502", "value": "1052.3 ± 0.1", "unit": "kg/m3"}, {"measurement": "viscosity", "setting": "303.15 K, m1 = 1.502", "value": "0.9236 ± 0.011", "unit": "mPa·s"}, {"measurement": "mass density", "setting": "303.15 K, m1 = 1.794", "value": "1062.5 ± 0.2", "unit": "kg/m3"}, {"measurement": "viscosity", "setting": "303.15 K, m1 = 1.794", "value": "0.9496 ± 0.012", "unit": "mPa·s"}, {"measurement": "mass density", "setting": "303.15 K, m1 = 2.004", "value": "1069.7 ± 0.2", "unit": "kg/m3"}, {"measurement": "viscosity", "setting": "303.15 K, m1 = 2.004", "value": "0.9695 ± 0.012", "unit": "mPa·s"}, {"measurement": "mass density", "setting": "303.15 K, m1 = 2.409", "value": "1083.4 ± 0.2", "unit": "kg/m3"}, {"measurement": "viscosity", "setting": "303.15 K, m1 = 2.409", "value": "1.011 ± 0.013", "unit": "mPa·s"}, {"measurement": "mass density", "setting": "303.15 K, m1 = 3", "value": "1102.7 ± 0.2", "unit": "kg/m3"}, {"measurement": "viscosity", "setting": "303.15 K, m1 = 3", "value": "1.08 ± 0.013", "unit": "mPa·s"}, {"measurement": "mass density", "setting": "303.15 K, m1 = 3.595", "value": "1121.4 ± 0.2", "unit": "kg/m3"}, {"measurement": "viscosity", "setting": "303.15 K, m1 = 3.595", "value": "1.162 ± 0.014", "unit": "mPa·s"}, {"measurement": "mass density", "setting": "303.15 K, m1 = 4.186", "value": "1139.2 ± 0.2", "unit": "kg/m3"}, {"measurement": "viscosity", "setting": "303.15 K, m1 = 4.186", "value": "1.256 ± 0.015", "unit": "mPa·s"}, {"measurement": "mass density", "setting": "303.15 K, m1 = 4.812", "value": "1157.5 ± 0.2", "unit": "kg/m3"}, {"measurement": "viscosity", "setting": "303.15 K, m1 = 4.812", "value": "1.373 ± 0.016", "unit": "mPa·s"}]}]}
